pIC50: −log10 of the molar value. Counter-ions that a name gives are not always drawn.

For data set [1], the system named is PDGFR (Platelet-Derived Growth Factor Receptor) tyrosine kinase. Conditions: cited from earlier work.
For data set [2], the target named is VEGFR-2 (Vascular Endothelial Growth Factor Receptor-2) tyrosine kinase (Homo sapiens, UniProt P35968). The conditions noted are these: cited from earlier work.
Data set [3] relates to advanced gastric cancers or gastroesophageal junction (GEJ) cancers. Kind of data set: Efficacy study of EOC315 with capecitabine and cisplatinum in patients. Type of data set: in vivo, human. The conditions noted are these: combination with capecitabine and cisplatinum. The source says: After at most 6 cycles of cisplatinum treatment, both or either of capecitabine and EOC315 was delivered to a subject in a dosage previously used according to the toxic reaction conditions, until the disease progressed.
Forty-eight subjects in total were enrolled for this study. Forty-five subjects (94%) had tumor metastasis and thirty-five subjects (73%) had more than two metastatic sites thereinto. The livers of 26 subjects (54%) were involved due to the tumors. The major sites involved for the 26 subjects (54%) were gastroesophageal junctions, the major sites involved for 22 subjects (46%) were stomach, and the majority of the subjects got an ECOG score of 1 (n=41, 85%).
Thirty-nine subjects completed at least one course of treatment and got therapeutic effect evaluation. The objective response rate (ORR) was 67%. One subject (2.6%) achieved the complete response. […] It was evaluated that the objective response generally occurred in the previous two cycles of treatment and lasted for a long time, which was related closely to the duration of treatment received by the subjects. The anti-tumor effect was not related to tumor tissue type, the primary site, whether or not liver is involved, or the study center. Median progression-free survival (PFS) was 4.5 months. […] The median time to progression for patients showing tumor remission was 6.4 months. Median overall survival (OS) was estimated to be 7.8 months, and the 1-year survival rate was 33%.

Data set [4] is described as follows: Crystalline form after micronization (XRPD, DSC, HSM). Type of data set: physicochemical. The conditions noted are these: micronized, D90≤15 μm. The method, then:
The pressure of the micronization equipment was set to be ≥0.65 MPa to obtain an EOC315 crystalline form micropowder, with a particle size D90≤15 μm. The X-ray powder diffraction, DSC, and HSM data of the micronized sample were measured using the aforementioned methods, and the results are shown in FIG. 2, FIG. 4, and FIG. 6.

Chain of VEGFR-2 (Vascular Endothelial Growth Factor Receptor-2) tyrosine kinase (P35968 20-1356): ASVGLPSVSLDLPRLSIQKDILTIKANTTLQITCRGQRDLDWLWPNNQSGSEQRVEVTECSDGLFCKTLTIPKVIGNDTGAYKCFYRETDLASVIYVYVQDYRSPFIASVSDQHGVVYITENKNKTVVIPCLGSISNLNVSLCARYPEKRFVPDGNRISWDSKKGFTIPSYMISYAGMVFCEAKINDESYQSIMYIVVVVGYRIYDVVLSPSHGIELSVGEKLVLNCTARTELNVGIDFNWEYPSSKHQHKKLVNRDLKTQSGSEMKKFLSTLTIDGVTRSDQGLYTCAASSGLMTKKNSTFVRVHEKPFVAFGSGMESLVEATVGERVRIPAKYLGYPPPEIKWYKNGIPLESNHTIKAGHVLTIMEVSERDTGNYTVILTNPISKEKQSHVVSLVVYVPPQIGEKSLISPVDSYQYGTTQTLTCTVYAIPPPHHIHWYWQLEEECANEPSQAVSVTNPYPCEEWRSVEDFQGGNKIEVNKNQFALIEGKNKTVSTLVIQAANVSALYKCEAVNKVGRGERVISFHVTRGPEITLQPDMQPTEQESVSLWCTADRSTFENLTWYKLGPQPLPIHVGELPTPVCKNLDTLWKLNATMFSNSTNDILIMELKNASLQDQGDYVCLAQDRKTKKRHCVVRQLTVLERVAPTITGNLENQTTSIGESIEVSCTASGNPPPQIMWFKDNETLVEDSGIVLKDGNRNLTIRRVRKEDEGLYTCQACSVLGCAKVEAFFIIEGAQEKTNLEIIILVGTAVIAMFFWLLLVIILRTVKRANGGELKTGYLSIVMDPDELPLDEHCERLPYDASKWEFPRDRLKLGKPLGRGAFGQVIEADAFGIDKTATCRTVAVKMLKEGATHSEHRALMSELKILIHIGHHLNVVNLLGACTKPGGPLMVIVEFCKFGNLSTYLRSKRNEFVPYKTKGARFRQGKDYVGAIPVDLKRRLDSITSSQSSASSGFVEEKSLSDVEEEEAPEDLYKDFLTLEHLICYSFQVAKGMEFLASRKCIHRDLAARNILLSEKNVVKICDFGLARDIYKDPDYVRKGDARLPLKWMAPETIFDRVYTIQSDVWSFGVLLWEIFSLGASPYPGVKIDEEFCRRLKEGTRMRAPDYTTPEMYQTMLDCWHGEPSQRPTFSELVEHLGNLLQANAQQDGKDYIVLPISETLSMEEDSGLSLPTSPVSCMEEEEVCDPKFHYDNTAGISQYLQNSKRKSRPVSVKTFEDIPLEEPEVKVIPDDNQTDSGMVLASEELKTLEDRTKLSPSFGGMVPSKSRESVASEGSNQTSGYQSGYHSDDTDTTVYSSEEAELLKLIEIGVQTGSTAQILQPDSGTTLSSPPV

In the case of `CNC(=O)c1cc(OCc2nnc(Nc3ccc(Cl)cc3)c3ccoc23)ccn1` [EOC315, 4-(4-chloroanilino)-7-(2-methylaminocarbonyl-4-oxymethyl) pyridylfuro[2,3-d]pyridazine mesylate], the pIC50 in data set [1] is 7.82. In addition, the negative logarithm of the IC50 (pIC50) in data set [2] is 8.22. Also, the “proportion of patients without tumor-progression within 6 months” value in data set [3] (Kaplan-Meier analysis) was found to be 52%. In data set [3], the 1-year survival rate was determined as 33% and the “median progression-free survival (PFS)” value is given as 4.5 months. Also, in data set [3] (39 evaluable subjects), the “objective response rate (ORR)” value amounted to 67%, the “subjects with complete response” value was 2.6%, the “subjects with partial response” value turned out to be 64.1% and the “subjects with stable condition maintained more than 12 weeks” value was found to be 28.2%. Moreover, in data set [3] (estimated), the “median overall survival (OS)” value was 7.8 months. In addition, the “median time to progression” value in data set [3] (patients showing tumor remission) is listed as 6.4 months.

`CNC(=O)c1cc(OCc2nnc(Nc3ccc(Cl)cc3)c3ccoc23)ccn1` [micronized EOC315]: the “crystalline form after micronization” value in data set [4] is “remained unchanged”.

A word on the pIC50: it is −log10 of the IC50, conventionally taken in molar units.

The record behind these values is patent publication US10954246B2, “Compound of EOC315 Mod.I crystal form and preparation method thereof” (Taizhou EOC Pharma Co., Ltd., priority 2017, dated 2021).
